According to patent US20240261249A1, “NOVEL SQUARAMIDE DERIVATIVE AND USE THEREOF” (PUSAN NATIONAL UNIVERSITY INDUSTRY-UNIVERSITY COOPERATION …, priority 2021, published 2024):

The molecules below were run on Phospho-eIF2α (Ser51) (assay: Phospho-eIF2α (Ser51) Sandwich ELISA in K562 cells). Details: Homo sapiens, K562, 6 h, serum-free RPMI, 10 μM compound, control = 1, read-out: eIF2α phosphorylation, absorbance standardized to control (DMSO-treated) set to 1, at 10 μM.
Type: cell-based
Procedure: Pathscan Phospho-eIF2α (Ser51) Sandwich ELISA Kit #7286 from Cell signaling was used. The K562 cell line was cultured in serum-free RPMI medium at 37° C. in the presence of 5% CO2. Cells were treated with test compounds at a concentration of 10 μM. Six hours after compound treatment, the cells were lysed with a lysis buffer included in the kit to obtain 50 μg of protein by quantification. Afterwards, ELISA assay was performed according to the manufacturer's protocol to obtain absorbance. The absorbance for each obtained compound was standardized to a value of which the control (DMSO-treated) is set to 1.

| SMILES | activity at 10 µM [%] |
| --- | --- |
| O=c1c(Nc2ccccc2)c(N[C@H]2CC[C@H](Oc3ccc(C(F)(F)F)cc3)CC2)c1=O [Compound 8, 3-(Phenylamino)-4-(((1,4-trans)-4-(4-(trifluoromethyl)phenoxy)cyclohexyl)amino)cyclobut-3-ene-1,2-dione] | 95 |
| N#Cc1ccc(O[C@H]2CC[C@H](Nc3c(Nc4ccccc4)c(=O)c3=O)CC2)cc1 [Compound 9, 4-(((1,4-trans)-4-((3,4-Dioxo-2-(phenylamino)cyclobut-1-en-1-yl)amino)cyclohexyl)oxy)benzonitrile] | 88 |
| O=c1c(Nc2ccccc2)c(N[C@H]2CC[C@H](Oc3ccc([N+](=O)[O-])cc3)CC2)c1=O [Compound 10, 3-(((1,4-trans)-4-(4-Nitrophenoxy)cyclohexyl)amino)-4-(phenylamino)cyclobut-3-ene-1,2-dione] | 84 |
| CS(=O)(=O)c1ccc(O[C@H]2CC[C@H](Nc3c(Nc4ccccc4)c(=O)c3=O)CC2)cc1 [Compound 11, 3-(((1,4-trans)-4-(4-(Methylsulfonyl)phenoxy)cyclohexyl)amino)-4-(phenylamino)cyclobut-3-ene-1,2-dione] | 94 |
| NS(=O)(=O)c1ccc(O[C@H]2CC[C@H](Nc3c(Nc4ccccc4)c(=O)c3=O)CC2)cc1 [Compound 12, 4-(((1,4-trans)-4-((3,4-Dioxo-2-(phenylamino)cyclobut-1-en-1-yl)amino)cyclohexyl)oxy)benzenesulfonamide] | 81 |
| O=c1c(Nc2cccc(F)c2)c(N[C@H]2CC[C@H](Oc3ccc(C(F)(F)F)cc3)CC2)c1=O [Compound 13, 3-((3-Fluorophenyl)amino)-4-(((1,4-trans)-4-(4-(trifluoromethyl)phenoxy)cyclohexyl)amino)cyclobut-3-ene] | 84 |
| N#Cc1ccc(O[C@H]2CC[C@H](Nc3c(Nc4cccc(F)c4)c(=O)c3=O)CC2)cc1 [Compound 14, 4-(((1,4-trans)-4-((2-((3-Fluorophenyl)amino)-3,4-dioxocyclobut-1-en-1-yl)amino)cyclohexyl)oxy)benzonitrile] | 90 |
| O=c1c(Nc2cccc(F)c2)c(N[C@H]2CC[C@H](Oc3ccc([N+](=O)[O-])cc3)CC2)c1=O [Compound 15, 3-((3-Fluorophenyl)amino)-4-(((1,4-trans)-4-(4-nitrophenoxy)cyclohexyl)amino)cyclobut-3-ene-1,2-dione] | 81 |
| CS(=O)(=O)c1ccc(O[C@H]2CC[C@H](Nc3c(Nc4cccc(F)c4)c(=O)c3=O)CC2)cc1 [Compound 16, 3-((3-Fluorophenyl)amino)-4-(((1,4-trans)-4-(4-(methylsulfonyl)phenoxy)cyclohexyl)amino)cyclobut-3-ene-1,2-dione] | 84 |
| NS(=O)(=O)c1ccc(O[C@H]2CC[C@H](Nc3c(Nc4cccc(F)c4)c(=O)c3=O)CC2)cc1 [Compound 17, 4-(((1,4-trans)-4-((2-((3-Fluorophenyl)amino)-3,4-dioxocyclobut-1-en-1-yl)amino)cyclohexyl)oxy)benzenesulfonamide] | 86 |
| O=c1c(Nc2cccc(Cl)c2)c(N[C@H]2CC[C@H](Oc3ccc(C(F)(F)F)cc3)CC2)c1=O [Compound 18, 3-((3-Chlorophenyl)amino)-4-(((1,4-trans)-4-(4-(trifluoromethyl)phenoxy)cyclohexyl)amino)cyclobut-3-ene-1,2-dione] | 71 |
| CS(=O)(=O)c1ccc(O[C@H]2CC[C@H](Nc3c(Nc4cccc(Cl)c4)c(=O)c3=O)CC2)cc1 [Compound 21, 3-((3-Chlorophenyl)amino)-4-(((1,4-trans)-4-(4-(methylsulfonyl)phenoxy)cyclohexyl)amino)cyclobut-3-ene-1,2-dione] | 77 |
| NS(=O)(=O)c1ccc(O[C@H]2CC[C@H](Nc3c(Nc4cccc(Cl)c4)c(=O)c3=O)CC2)cc1 [Compound 22, 4-(((1,4-trans)-4-((2-((3-Chlorophenyl)amino)-3,4-dioxocyclobut-1-en-1-yl)amino)cyclohexyl)oxy)benzenesulfonamide] | 219 |
